Experimental findings from patent US20250235460A1, “COMBINATION THERAPY USING GLUCOSE-DEPENDENT INSULINOTROPIC POLYPEPTIDE RECEPTOR ANTAGONIST COMPOUNDS AND GLP-1 RECEPTOR AGONIST COMPOUNDS” (Pfizer Inc., priority 2024, published 2025) are described below.

pEC50: −log10 of the molar value.

The target in experiment [1] is human GLP-1R (Homo sapiens, UniProt P43220, G168S). Nature of the experiment: CHO GLP-1R Clone H6 cAMP HTRF agonist assay (Assay 1, high receptor density). In kind it is cell-based. The settings on record: for pEC50: CHO GLP-1R clone H6, cAMP HTRF, geometric mean; for Emax: CHO GLP-1R clone H6, arithmetic mean, relative to saturating GLP-1 (1 μM), read-out: Assay 1 Emax (%). Summed up:
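Two significant figures are used throughout. Each EC50 is the geometric mean of its replicates, and each Emax is the arithmetic mean.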

Experiment [2] addresses human GLP-1R (Homo sapiens, UniProt P43220, L260F). Nature of the experiment: CHO GLP-1R Clone C6 cAMP HTRF agonist assay (Assay 2, low receptor density). In kind it is cell-based. The settings on record: for pEC50: CHO GLP-1R clone C6, cAMP HTRF, geometric mean; for Emax: CHO GLP-1R clone C6, arithmetic mean, relative to saturating GLP-1 (1 μM). The source says: In Table 5 and Table 6, assay data are presented to two (2) significant figures as the geometric mean (EC50s) and arithmetic mean (Emax) based on the number of replicates listed (Number). A blank cell means there was no data for that Example or the Emax was not calculated.

human GLP-1R (Homo sapiens, UniProt P43220, L260F), sequence (P43220 24-463 L260F): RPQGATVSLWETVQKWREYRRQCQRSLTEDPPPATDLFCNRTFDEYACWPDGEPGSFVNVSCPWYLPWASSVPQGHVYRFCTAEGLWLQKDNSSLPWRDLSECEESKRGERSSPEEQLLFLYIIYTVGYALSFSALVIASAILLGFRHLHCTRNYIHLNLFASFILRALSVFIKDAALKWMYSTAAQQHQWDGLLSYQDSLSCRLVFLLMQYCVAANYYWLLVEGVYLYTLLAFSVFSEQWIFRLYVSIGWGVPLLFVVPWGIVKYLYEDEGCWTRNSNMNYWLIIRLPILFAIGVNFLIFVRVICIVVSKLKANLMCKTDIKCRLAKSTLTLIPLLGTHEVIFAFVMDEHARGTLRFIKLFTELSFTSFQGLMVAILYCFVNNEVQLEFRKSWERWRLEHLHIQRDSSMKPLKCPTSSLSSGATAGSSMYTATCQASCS
human GLP-1R (Homo sapiens, UniProt P43220, G168S), sequence (P43220 24-463 G168S): as the sequence (P43220 24-463 L260F) above, with G145S, F237L counted along it

In the case of `O=C(O)c1ccc2nc(CN3CCN(c4cccc(OCc5ccc(Cl)cc5F)n4)CC3)n(C[C@@H]3CCO3)c2n1` [Compound 120B, 2-[(4-{6-[(4-chloro-2-fluorobenzyl)oxy]pyridin-2-yl}piperazin-1-yl)methyl]-3-[(2S)-oxetan-2-ylmethyl]-3H-imidazo[4,5-b]pyridine-5-carboxylic acid], the pEC50 at human GLP-1R [1] was 7.33; on human GLP-1R [2], 5.80. Moreover, the Emax at human GLP-1R [1] came out at 71%; at human GLP-1R [2], 81%.
On to `C[C@H]1CN(c2cccc(OCc3ccc(C#N)cc3F)n2)CCN1Cc1nc2ccc(C(=O)O)nc2n1Cc1ncco1` [Compound 215B, 2-{[(2S)-4-{6-[(4-cyano-2-fluorobenzyl)oxy]pyridin-2-yl}-2-methylpiperazin-1-yl]methyl}-3-(1,3-oxazol-2-ylmethyl)-3H-imidazo [4,5-b]pyridine-5-carboxylic acid], for which, on human GLP-1R [1], the negative-log EC50 (pEC50) is 8.47 and the Emax is 73%. Further, the Emax at human GLP-1R [2] came to 89%.
For the molecule `Cn1c(CN2CCC(c3cccc(OCc4ccc(Cl)cc4F)n3)CC2)nc2cc(F)c(C(=O)O)cc21` [Compound 206B, 2-[(4-{6-[(4-chloro-2-fluorobenzyl)oxy]pyridin-2-yl}piperidin-1-yl)methyl]-5-fluoro-1-methyl-1H-benzimidazole-6-carboxylic acid], at human GLP-1R [1], the pEC50 is 7.42. In addition, at human GLP-1R [2], the pEC50 is 6.12 and the Emax stood at 91%.
Regarding `O=C(O)c1ccc2nc(CN3CCC(c4cccc(OCc5ccc(Cl)cc5F)n4)CC3)n(CCc3c[nH]cn3)c2c1` [Compound 316B, 2-[(4-{6-[(4-chloro-2-fluorobenzyl)oxy]pyridin-2-yl}piperidin-1-yl)methyl]-1-[2-(1H-imidazol-4-yl)ethyl]-1H-benzimidazole-6-carboxylic acid], on human GLP-1R [1], the pEC50 was 6.35 and the Emax is 71%. Further, at human GLP-1R [2], the pEC50 was 5.25 and the Emax amounted to 76%.
For `CN1CCCC(Cn2c(CN3CCC(c4cccc(OCc5ccc(Cl)cc5F)n4)CC3)nc3ccc(C(=O)O)cc32)C1` (stereo not shown) [Compound 279B, 2-[(4-{6-[(4-chloro-2-fluorobenzyl)oxy]pyridin-2-yl}piperidin-1-yl)methyl]-1-[(1-methylpiperidin-3-yl)methyl]-1H-benzimidazole-6-carboxylic acid], on human GLP-1R [1], the pEC50 is 7.96 and the Emax worked out at 71%. At human GLP-1R [2], this molecule had a pEC50 of 6.39 and an Emax of 75%.
On to `COCCn1c(CN2CCC(c3cccc(OCc4cc(F)c(Cl)cc4F)n3)CC2)nc2ccc(C(=O)O)cc21` [Compound 219B, 2-((4-(6-((4-chloro-2,5-difluorobenzyl)oxy)pyridin-2-yl)piperidin-1-yl)methyl)-1-(2-methoxyethyl)-1H-benzo[d]imidazole-6-carboxylic acid], for which the values for the pEC50 at human GLP-1R [1] and on human GLP-1R [2] were 9.52 and 8.42, respectively. For the same molecule, the Emax on human GLP-1R [1] and on human GLP-1R [2] was 93% each time.
`O=C(O)c1ccc2nc(CN3CCC(c4cccc(OCc5ccc(F)cc5F)n4)CC3)n(Cc3cnco3)c2c1` [Compound 157B, 2-[(4-{6-[(2,4-difluorobenzyl)oxy]pyridin-2-yl}piperidin-1-yl)methyl]-1-(1,3-oxazol-5-ylmethyl)-1H-benzimidazole-6-carboxylic acid]: on human GLP-1R [1], the pEC50 was 8.07 and the Emax worked out at 88%. At human GLP-1R [2], this molecule gave a pEC50 of 6.66 and an Emax of 110%.
For `CCN1CCC(Cn2c(CN3CCC(c4cccc(OCc5ccc(Cl)cc5F)n4)CC3)nc3ccc(C(=O)O)cc32)C1` (stereo not shown) [Compound 278B, 2-[(4-{6-[(4-chloro-2-fluorobenzyl)oxy]pyridin-2-yl}piperidin-1-yl)methyl]-1-[(1-ethylpyrrolidin-3-yl)methyl]-1H-benzimidazole-6-carboxylic acid], at human GLP-1R [1], the pEC50 is 8.03 and the Emax stood at 69%. For the same molecule, at human GLP-1R [2], the pEC50 is 7.03 and the Emax worked out at 92%.
Take `COCCn1c(CN2CCN(c3cccc(OCc4ccc(Cl)cc4F)n3)[C@@H](C)C2)nc2ccc(C(=O)O)cc21` [Compound 183B, 2-{[(3S)-4-{6-[(4-chloro-2-fluorobenzyl)oxy]pyridin-2-yl}-3-methylpiperazin-1-yl]methyl}-1-(2-methoxyethyl)-1H-benzimidazole-6-carboxylic acid]: the pEC50 was 6.74 at human GLP-1R [1] and 5.46 at human GLP-1R [2]. In addition, the Emax on human GLP-1R [1] stood at 78%; on human GLP-1R [2] it was 90%.
As to `CC(c1cnn(C)n1)n1c(CN2CCC(c3cccc(OCc4ccc(Cl)cc4F)n3)CC2)nc2ccc(C(=O)O)cc21` (stereo not shown) [Compound 335B, 2-[(4-{6-[(4-chloro-2-fluorobenzyl)oxy]pyridin-2-yl}piperidin-1-yl)methyl]-1-[1-(2-methyl-2H-1,2,3-triazol-4-yl)ethyl]-1H-benzimidazole-6-carboxylic acid], the pEC50 on human GLP-1R [1] was 8.30; on human GLP-1R [2], 7.39. For the same molecule, the figures for the Emax at human GLP-1R [1] and on human GLP-1R [2] were 82% and 77%, respectively.
Take `C[C@H]1CN(c2ccc(F)c(OCc3ccc(F)cc3F)n2)CCN1Cc1nc2ccc(C(=O)O)cc2n1C[C@@H]1CCO1` [Compound 133B, 2-{[(2S)-4-{6-[(2,4-difluorobenzyl)oxy]-5-fluoropyridin-2-yl}-2-methylpiperazin-1-yl]methyl}-1-[(2S)-oxetan-2-ylmethyl]-1H-benzimidazole-6-carboxylic acid]: the pEC50 on human GLP-1R [1] is 6.72; on human GLP-1R [2], 5.85. The Emax was 91% at human GLP-1R [1] and 47% at human GLP-1R [2].
In the case of `O=C(O)c1ccc2nc(CN3CCC(c4cccc(OCc5ccc(Cl)cc5F)n4)CC3)n(Cc3cocn3)c2c1` [Compound 155B, 2-[(4-{6-[(4-chloro-2-fluorobenzyl)oxy]pyridin-2-yl}piperidin-1-yl)methyl]-1-(1,3-oxazol-4-ylmethyl)-1H-benzimidazole-6-carboxylic acid], the pEC50 on human GLP-1R [1] is 8.10; at human GLP-1R [2], 6.82. Also, the Emax at human GLP-1R [1] came out at 80%; on human GLP-1R [2], 100%.
The molecule `COCCn1c(CN2CCC(c3cccc(OCc4ccc(C#N)c(C)c4)n3)CC2)nc2ccc(C(=O)O)cc21` [Compound 218B, 2-((4-(6-((4-cyano-3-methylbenzyl)oxy)pyridin-2-yl)piperidin-1-yl)methyl)-1-(2-methoxyethyl)-1H-benzo[d]imidazole-6-carboxylic acid] gave a pEC50 at human GLP-1R [1] of 8.82. Moreover, on human GLP-1R [2], the pEC50 is 7.54 and the Emax is 95%.
As to `O=C(O)c1ccc2nc(CN3CCC(c4cccc(OCc5ccc(Cl)cc5F)n4)CC3)n(C[C@H]3CCO3)c2n1` [Compound 216B, 2-[(4-{6-[(4-chloro-2-fluorobenzyl)oxy]pyridin-2-yl}piperidin-1-yl)methyl]-3-[(2R)-oxetan-2-ylmethyl]-3H-imidazo[4,5-b]pyridine-5-carboxylic acid], on human GLP-1R [1], the pEC50 was 9.33 and the Emax was 77%. For the same molecule, at human GLP-1R [2], the pEC50 is 8.30 and the Emax turned out to be 94%.
For the molecule `COCCn1c(CN2CCC(c3cccc(OCc4c(F)cc(Cl)cc4F)n3)CC2)nc2ccc(C(=O)O)cc21` [Compound 220B, 2-((4-(6-((4-chloro-2,6-difluorobenzyl)oxy)pyridin-2-yl)piperidin-1-yl)methyl)-1-(2-methoxyethyl)-1H-benzo[d]imidazole-6-carboxylic acid], at human GLP-1R [1], the pEC50 was 9.48 and the Emax was 82%. Besides, on human GLP-1R [2], the negative logarithm of the EC50 (pEC50) is 7.89 and the Emax stood at 110%.
With `COCCn1c(CN2CCC(c3cccc(OCc4ccc(C#N)cc4)n3)CC2)nc2cc(F)c(C(=O)O)cc21` [Compound 211B, 2-[(4-{6-[(4-cyanobenzyl)oxy]pyridin-2-yl}piperidin-1-yl)methyl]-5-fluoro-1-(2-methoxyethyl)-1H-benzimidazole-6-carboxylic acid], at human GLP-1R [1], the pEC50 is 7.30 and the Emax amounted to 81%. Further, on human GLP-1R [2], the pEC50 is 6.06 and the Emax is 83%.
Regarding `N#Cc1ccc(COc2nc(C3CCN(Cc4nc5ccc(C(=O)O)cc5n4C[C@@H]4CCO4)CC3)ccc2F)cc1` [Compound 127B, 2-[(4-{6-[(4-cyanobenzyl)oxy]-5-fluoropyridin-2-yl}piperidin-1-yl)methyl]-1-[(2S)-oxetan-2-ylmethyl]-1H-benzimidazole-6-carboxylic acid], the values for the pEC50 at human GLP-1R [1] and on human GLP-1R [2] were 8.31 and 7.12, respectively. The values for the Emax on human GLP-1R [1] and at human GLP-1R [2] were 77% and 83%, respectively.
For `N#Cc1ccc(COc2cccc(N3CCN(Cc4nc5ccc(C(=O)O)cc5n4Cc4ncco4)CC3)n2)c(F)c1` [Compound 140B, 2-[(4-{6-[(4-cyano-2-fluorobenzyl)oxy]pyridin-2-yl}piperazin-1-yl)methyl]-1-(1,3-oxazol-2-ylmethyl)-1H-benzimidazole-6-carboxylic acid] the same measures were 7.44, 6.82, 84% and 92%.
With `COC(C)(C)Cn1c(CN2CCC(c3cccc(OCc4ccc(Cl)cc4F)n3)CC2)nc2ccc(C(=O)O)cc21` [Compound 297B, 2-[(4-{6-[(4-chloro-2-fluorobenzyl)oxy]pyridin-2-yl}piperidin-1-yl)methyl]-1-(2-methoxy-2-methylpropyl)-1H-benzimidazole-6-carboxylic acid], on human GLP-1R [1], the pEC50 was 6.96 and the Emax was 70%. On human GLP-1R [2], this molecule had a pEC50 of 5.46 and an Emax of 95%.

What is called pEC50 is the negative decadic logarithm of the EC50, by convention in mol/L. Usually Emax stands for the size of the effect at its maximum, as opposed to the concentration needed.
